Data reported in US6608082B1, “Treatment of erectile dysfunction using isoquinoline compound melanocortin receptor ligands” (Lion Bioscience AG, priority 1998, dated 2003).

Assays:
[1] = target: T1, MCR-3 (Homo sapiens, UniProt P41968); test: Melanocortin receptor binding assay, competition with 125I-HP 467, HEK 293 cells expressing hMCR-3; conditions: binding to MCR-3, HEK 293 cells; read-out: MC-3 IC50
T1 construct: expressed in transfected cells; host or cells: HEK 293
Source text: (§1) All cell culture media and reagents were obtained from GibcoBRL (Gaithersburg Md.), except for COSMIC CALF SERUM (HyClone; Logan Utah). HEK-293 cell lines were transfected with the human MC receptors hMCR-1, hMCR-3, and hMCR-4 (Gantz et al., Biochem. Biophys. Res. Comm. 200:1214-1220 (1994); Gantz et al., J. Biol. Chem. 268:8246-8250 (1993); Gantz et al. J. Biol. Chem. 268:15174-15179 (1993); Haskell-Leuvano et al., Biochem. Biophys. Res. Comm. 204:1137-1142 (1994); each of which is incorporated herein by reference). Vectors for construction of an hMCR-5 expressing cell line were obtained, and a line of HEK 293 cells expressing hMCR-5 was constructed (Gantz, supra, 1994). hMCR-5 has been described previously (Franberg et al., Biochem. Biophys. Res. Commun. 236:489-492 (1997); Chowdhary et al., Cytogenet. Cell Genet. 68:1-2 (1995); Chowdhary et al., Cytogenet. Cell Genet. 68:79-81 (1995), each of which is incorporated herein by reference). HEK 293 cells were maintained in DMEM, 25 mM HEPES, 2 mM glutamine, non-essential amino acids, vitamins, sodium pyruvate, 10% COSMIC CALF SERUM, 100 units/ml penicillin, 100 μg/ml streptomycin and 0.2 mg/ml G418 to maintain selection.
(§2) Before assaying, cells were washed once with phosphate buffered saline (“PBS”; without Ca^2+ and Mg^2+), and stripped from the flasks using 0.25% trypsin and 0.5 mM EDTA. Cells were suspended in PBS, 10% COSMIC CALF SERUM and 1 mM CaCl2. Cell suspensions were prepared at a density of 2×10^4 cells/ml for HEK 293 cells expressing hMCR-3, hMCR-4 or hMCR-5, and 1×10^5 cells/ml for HEK 293 cells expressing hMCR-1. Suspensions were placed in a water bath and allowed to warm to 37° C. for 1 hr.
(§3) Binding assays were performed in a total volume of 250 μl for HEK 293 cells. Control and test compounds were dissolved in distilled water. ^125I-HP 467 (50,000 dpm) (2000 Ci/mmol) (custom labeled by Amersham; Arlington Heights Ill.) was prepared in 50 mM Tris, pH 7.4, 2 mg/ml BSA, 10 mM CaCl2, 5 mM MgCl2, 2 mM EDTA and added to each tube. To each tube was added 4×10^3 HEK 293 cells expressing hMCR-3, hMCR-4 or hMCR-5, or 2×10^4 cells expressing hMCR-1. Assays were incubated for 2.5 hr at 37° C.
(§4) GF/B filter plates were prepared by soaking for at least one hour in 5 mg/ml BSA and 10 mM CaCl2. Assays were filtered using a Brandel 96-well cell harvester (Brandel Inc.; Gaithersburg, Md.). The filters were washed four times with cold 50 mM Tris, pH 7.4, the filter plates were dehydrated for 2 hr and 35 μl of MICROSCINT was added to each well. Filter plates were counted using a Packard Topcount (Packard Instrument Co.) and data analyzed using GraphPad PRISM v2.0 (GraphPad Software Inc.; San Diego Calif.) and Microsoft EXCEL v5.0a (Microsoft Corp.; Redmond Wash.).
(§5) To assay isoquinoline compounds, binding assays were performed in duplicate in a 96 well format. HP 467 was prepared in 50 mM Tris, pH 7.4, and ^125I-HP 467 was diluted to give 100,000 dpm per 50 μl. An isoquinoline compound, synthesized as described in Example I, was added to the well in 25 μl aliquots. A 25 μl aliquot of ^125I-HP 467 was added to each well. A 0.2 ml aliquot of suspended cells was added to each well to give the cell numbers indicate above, and the cells were incubated at 37° C. for 2.5 hr. Cells were harvested on GF/B filter plates as described above and counted.
(§6) Some of the isoquinoline compounds were further tested for binding to MCR-3 and MCR-5.

[2] = target: T2, MCR-5 (Homo sapiens, UniProt P33032); test: Melanocortin receptor binding assay, competition with 125I-HP 467, HEK 293 cells expressing hMCR-5; conditions: binding to MCR-5, HEK 293 cells; read-out: MC-5 IC50
T2 construct: expressed in transfected cells; host or cells: HEK 293
T2 sequence (P33032 whole entry): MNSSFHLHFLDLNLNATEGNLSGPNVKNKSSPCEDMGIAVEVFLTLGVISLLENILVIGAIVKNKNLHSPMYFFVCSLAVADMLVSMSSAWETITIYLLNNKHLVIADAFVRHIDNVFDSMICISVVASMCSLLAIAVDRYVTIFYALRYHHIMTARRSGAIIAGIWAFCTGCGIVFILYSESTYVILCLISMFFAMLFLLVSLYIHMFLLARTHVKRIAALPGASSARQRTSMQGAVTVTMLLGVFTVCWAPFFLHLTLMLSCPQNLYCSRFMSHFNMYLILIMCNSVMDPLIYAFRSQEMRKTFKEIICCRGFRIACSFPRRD
Source text: as §1, §2, §3, §4, §5, §6

[3] = target: T3, MCR-1 (Homo sapiens, UniProt Q01726); test: cAMP assay for melanocortin receptors, HEK 293 cells expressing MCR-1; type: cell-based; conditions: for EC50: 50% of maximal cAMP production, read-out: MC-1 EC50 (cAMP); for MC-1 Max (pmole) cAMP produced: maximum amount of cAMP
T3 construct: expressed in transfected cells; host or cells: HEK 293
T3 sequence (Q01726 whole entry): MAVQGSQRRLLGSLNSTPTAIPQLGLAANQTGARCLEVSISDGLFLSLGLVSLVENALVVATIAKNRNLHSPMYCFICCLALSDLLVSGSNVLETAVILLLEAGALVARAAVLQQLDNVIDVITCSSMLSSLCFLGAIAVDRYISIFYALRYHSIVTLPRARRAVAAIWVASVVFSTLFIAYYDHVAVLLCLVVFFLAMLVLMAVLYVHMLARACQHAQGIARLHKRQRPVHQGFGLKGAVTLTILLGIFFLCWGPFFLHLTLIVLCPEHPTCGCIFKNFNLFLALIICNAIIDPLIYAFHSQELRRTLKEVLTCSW
Method: (§7) HEK 293 cells expressing MCR-1, MCR-3, MCR-4 and MCR-5 were used (see Example II). Cells were plated at 20,000 cells per well in a 96-well plate coated with collagen. The next day, cells were pretreated with 75 μl of 0.4 mM 3-isobutyl-1-methylxanthine (IBMX) in low serum medium containing DMEM, 25 mM HEPES, non-essential amino acids, vitamins, 100 units/ml penicillin, 100 μg/ml streptomycin and 0.1% COSMIC CALF SERUM. IBMX is an inhibitor of cAMP phosphodiesterase. The pretreatment was carried out for 10 min at 37° C.
(§8) Following pretreatment, 25 μl of diluted isoquinoline compound was added to the wells, and cells were incubated for 15 min at 37° C. Cells were lysed by adding 25 μl saponin lysis buffer and incubating 2 to 5 min. Plates were covered and stored at −20° C.
(§9) cAMP concentration was determined by ELISA. Briefly, 96 well ELISA plates were coated with goat anti-cAMP antibody in PBS for 12 to 72 hr at 4° C. 50 μl of sample was mixed with 50 μl of cAMP ELISA buffer containing 1% bovine serum albumin, 10% heat-inactivated donor horse serum, 1% normal mouse serum and 0.05% TWEEN-20 in PBS, and the diluted sample was added to the coated ELISA plate. Standards of known concentrations of cAMP were added to separate wells. 25 μl of 16 ng/ml cAMP-conjugated horse radish peroxidase (HRP) (cAMP-HRP) was added to each well, and the plates were […] at room temperature. Plates were washed and the binding of cAMP-HRP was detected with 3,3′,5,5′-tetramethylbenzidine (TMB) and hydrogen peroxide using standard immunoassay procedures.
(§10) Various isoquinoline compounds were tested for their ability to activate MC receptor by measuring cAMP as described in Example III.

[4] = target: T1, MCR-3; test: cAMP assay for melanocortin receptors, HEK 293 cells expressing MCR-3; type: cell-based; conditions: read-out: MC-3 EC50 (cAMP)
Method: as §7, §8, §9, §10

[5] = target: T4, MCR-4 (Homo sapiens, UniProt P32245); test: cAMP assay for melanocortin receptors, HEK 293 cells expressing MCR-4; type: cell-based; conditions: for EC50: read-out: MC-4 EC50 (cAMP); for MC-4 Max (pmole) cAMP produced: maximum amount of cAMP
T4 construct: expressed in transfected cells; host or cells: HEK 293
T4 sequence (P32245 whole entry): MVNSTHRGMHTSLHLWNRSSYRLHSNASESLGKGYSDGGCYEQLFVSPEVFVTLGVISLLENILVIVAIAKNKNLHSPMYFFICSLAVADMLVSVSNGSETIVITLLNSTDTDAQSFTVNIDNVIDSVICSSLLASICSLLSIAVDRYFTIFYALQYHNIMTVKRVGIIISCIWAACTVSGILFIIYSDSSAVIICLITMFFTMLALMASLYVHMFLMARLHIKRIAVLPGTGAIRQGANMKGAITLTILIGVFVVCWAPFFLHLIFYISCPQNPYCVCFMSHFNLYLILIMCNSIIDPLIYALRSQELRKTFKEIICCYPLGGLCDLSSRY
Method: as §7, §8, §9, §10

T1 sequence (P41968 whole entry): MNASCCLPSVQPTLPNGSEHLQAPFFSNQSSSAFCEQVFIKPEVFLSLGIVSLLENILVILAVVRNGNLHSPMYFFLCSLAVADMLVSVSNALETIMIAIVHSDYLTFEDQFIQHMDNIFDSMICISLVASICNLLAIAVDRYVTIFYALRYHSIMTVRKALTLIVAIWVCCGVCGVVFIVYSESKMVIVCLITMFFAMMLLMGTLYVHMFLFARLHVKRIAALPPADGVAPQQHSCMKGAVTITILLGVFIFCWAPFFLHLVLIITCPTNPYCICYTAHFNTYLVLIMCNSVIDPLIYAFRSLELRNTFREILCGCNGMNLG

| SMILES | IC50 [1] [µM] | IC50 [2] [µM] | EC50 [3] [µM] | MC-1 Max (pmole) cAMP produced [3] [pmol] | EC50 [4] [µM] | EC50 [5] [µM] | MC-4 Max (pmole) cAMP produced [5] [pmol] |
| --- | --- | --- | --- | --- | --- | --- | --- |
| CNC(CN)CN1Cc2ccccc2C(CNC2CCCCC2)C1c1ccc(O)cc1 (centres unmarked) [TRG 2405-156] | 23.7 | 2.83 | 20.6 | 16.01 | > 50 | > 50 |  |
| CNC(CN)CCCCN1Cc2ccccc2C(CNC2CCCCC2)C1c1ccc(Cl)cc1Cl (centres unmarked) [TRG 2405-190] | 2.24 | 0.8 | 8.52 | 33.56 |  | 46.3 | 100.48 |
| CNC(CN)CCCCN1Cc2ccccc2C(CNC2CCCCC2)C1c1ccc(N(C)C)cc1 (centres unmarked) [TRG 2405-235] | 22.3 | 2.82 | 29.9 | 17.07 |  | > 50 |  |
| CNC(CN)CCCCN1Cc2ccccc2C(CNC2CCCCC2)C1c1ccc(C(F)(F)F)cc1 (centres unmarked) [TRG 2405-238] | > 10 | 0.43 | 19.9 | 29.82 | > 50 | > 50 |  |
| CCNc1ccc(C2C(CNC3CCCCC3)c3ccccc3CN2CCCCC(CN)NC)cc1 (centres unmarked) [TRG 2405-239] | 39.8 | 8.72 | 3.67 | 20.6 | > 50 | > 50 |  |
| CNC(CN)CCCCN1Cc2ccccc2C(CNC2CCCCC2)C1c1ccc(-c2ccccc2)cc1 (centres unmarked) [TRG 2405-241] | 7.45 | 1.04 | 10.4 | 66.67 | > 50 | 28.5 | 32.32 |
| CNC(CN)CCCCN1Cc2ccccc2C(CNC2CCCCC2)C1c1ccc(Br)cc1 (centres unmarked) [TRG 2405-242] | 0.55 | 0.41 | 13.1 | 55.89 | > 50 | > 50 |  |
| CNC(CN)CCCCN1Cc2ccccc2C(CNC2CCCCC2)C1c1ccc(O)cc1 (centres unmarked) [TRG 2405-246] | > 10 | > 10 | 23.7 | 12.48 | > 50 | > 50 |  |
| CNC(CN)CCCCN1Cc2ccccc2C(CNC2CCCCC2)C1c1ccc(Oc2ccccc2)cc1 (centres unmarked) [TRG 2405-252] | 6.49 | 1.86 | 16 | 33.07 | > 50 | 18.5 | 39.24 |
| CCCOc1ccc(C2C(CNC3CCCCC3)c3ccccc3CN2CCCCC(CN)NC)cc1 (centres unmarked) [TRG 2405-253] | 9.68 | 2.77 | 8.5 | 22.55 | > 50 | 16.6 | 69.11 |
| CNC(CN)CCCCN1Cc2ccccc2C(CNC2CCCCC2)C1c1ccc2cccc(O)c2n1 (centres unmarked) [TRG 2405-262] | > 10 | > 10 | > 50 |  | > 50 | > 50 |  |
| CNC(CN)CCCCN1Cc2ccccc2C(CN)C1c1ccc(Cl)cc1Cl (centres unmarked) [TRG 2407-39] | 0.28 | 0.24 |  |  |  |  |  |
| CCNc1ccc(C2C(CNC3CCCCC3)c3ccccc3CN2CCCCC(CN)NC)cc1 (centres unmarked) [TRG 2408-30] | 40.4 | 9.35 | 2.83 | 125.79 |  |  |  |
| CCNc1ccc(C2C(CNCc3ccccc3O)c3ccccc3CN2CCCC(CN)NCCc2ccccc2)cc1 (centres unmarked) [TRG 2408-57] | 5.17 | 1.7 | < 0.1 |  |  |  |  |
| CCNc1ccc(C2C(CNC3CCCCC3)c3ccccc3CN2CCCC(CN)NCCc2ccccc2)cc1 (centres unmarked) [TRG 2408-62] | 5.71 | 2.79 | < 0.1 |  |  |  |  |
| CCCCNc1ccc(C2C(CNCc3ccccc3O)c3ccccc3CN2CCCCC(CN)NC)cc1 (centres unmarked) [TRG 2409-2] |  |  | 1.01 | 200 |  |  |  |
| CCCCNc1ccc(C2C(CNC3CCCCC3)c3ccccc3CN2CCCCC(CN)NC)cc1 (centres unmarked) [TRG 2409-14] |  |  | 0.87 | 170 |  |  |  |
